In brackets after ≈: the same amount, converted by molar mass.
Assays:
Type in all cases: cell-based
[1] = system: Coagulase Negative Staphylococcis MS; assay: MIC by agar-dilution, Coagulase Negative Staphylococci MS; details: 10^4 CFU/spot, 37° C., 24 hours
Experimental: (§1) The following results were obtained on a standard in vitro test system. The activity is described in terms of the minimum inhibitory concentration (MIC) determined by the agar-dilution technique with an inoculum size of 10^4 CFU/spot. Staphylococci were tested on agar, using an inoculum of 10^4 CFU/spot and an incubation temperature of 37° C. for 24 hours—standard test conditions for the expression of methicillin resistance.

[2] = system: Staphylococcus aureus MRQS (methicillin resistant quinolone sensitive); assay: MIC by agar-dilution, Staphylococcus aureus MRQS; details: 10^4 CFU/spot, 37° C., 24 hours
Experimental: as §1

Bacillus subtilis = assay: MIC by agar-dilution, Bacillus subtilis; details: 10^4 CFU/spot
Experimental: as §1

[3] = system: Staphylococcus aureus MRQR (methicillin resistant quinolone resistant); assay: MIC by agar-dilution, Staphylococcus aureus MRQR; details: 10^4 CFU/spot, 37° C., 24 hours
Experimental: as §1

[4] = system: Coagulase Negative Staphylococcis MR (methicillin resistant); assay: MIC by agar-dilution, Coagulase Negative Staphylococci MR; details: 10^4 CFU/spot, 37° C., 24 hours
Experimental: as §1

[5] = system: Streptococcus pyogenes C203; assay: MIC by agar-dilution, Streptococcus pyogenes C203; details: agar with 5% defibrinated horse blood, 10^4 CFU/spot, 37° C., 5% carbon dioxide, 48 hours
Experimental: as §1
(§2) Streptococci and enterococci were tested on agar supplemented with 5% defibrinated horse blood, an inoculum of 10^4 CFU/spot and an incubation temperature of 37° C. in an atmosphere of 5% carbon dioxide for 48 hours—blood is required for the growth of some of the test organisms.

[6] = system: Staphylococcus aureus Oxford; assay: MIC by agar-dilution, Staphylococcus aureus Oxford; details: 10^4 CFU/spot, 37° C., 24 hours
Experimental: as §1

[7] = system: Staphylococcus aureus Novb. Res (Novobiocin resistant); assay: MIC by agar-dilution, Staphylococcus aureus Novb. Res; details: 10^4 CFU/spot, 37° C., 24 hours
Experimental: as §1

Enterococcus faecalis = assay: MIC by agar-dilution, Enterococcus faecalis; details: agar with 5% defibrinated horse blood, 10^4 CFU/spot, 37° C., 5% carbon dioxide, 48 hours
Experimental: as §1, §2

CC(=O)NC[C@H]1CC(c2ccc(C3=CCN(C(=O)CO)CC3)cc2)C(=O)O1 (stereo partly drawn) [Example 5, 5R,3RS-5-Acetamidomethyl-3-(4-[1-hydroxyacetyl-1,2,5,6-tetrahydropyrid-4-yl]phenyl)dihydrofuran-2(3H)-one]
MIC [1]: 2.0 µg/mL (≈ 5.37 µM)
MIC [2]: 4.0 µg/mL (≈ 10.7 µM)
MIC (Bacillus subtilis): 4.0 µg/mL (≈ 10.7 µM)
MIC [3]: 8.0 µg/mL (≈ 21.5 µM)
MIC [4]: 4.0 µg/mL (≈ 10.7 µM)
MIC [5]: 8.0 µg/mL (≈ 21.5 µM)
MIC [6]: 4.0 µg/mL (≈ 10.7 µM)
MIC [7]: 4.0 µg/mL (≈ 10.7 µM)
MIC (Enterococcus faecalis): 8.0 µg/mL (≈ 21.5 µM)

Source: patent US6350775B1, “3-phenyl-furan-(5H)-2-one and dihydrofuran-2-one derivatives as antibacterial agents” (priority 1996, dated 2002)
